Results published in patent US20230243822A1, “MOLECULAR DISEASE PROFILE AND USE THEREOF FOR MONITORING AND TREATING RHEUMATAOID ARTHRITIS” (JANSSEN BIOTECH, INC., priority 2020, published 2023).

Tests used:
[1] = tested on: 4-analyte M-DP panel (CRP, SAA, CXCL10, CXCL13); assay: Pharmacodynamic 4-analyte M-DP score by MSD U-PLEX, CORRONA CERTAIN biorepository serum; assay type: in vivo, human; conditions: U-PLEX 4-analyte; for M-DP score GMean decrease: all treated
Method: PD M-DP scores for the 4-analyte panel were calculated based on these concentrations of CRP, SAA, CXCL10, and CXCL13.
These samples were not previously evaluated for the M-DP panel development or reduction.

RA patients = conditions: cited from earlier work; for clinical efficacy in the underlying clinical studies: RA patients
14-analyte M-DP panel = assay: Pharmacodynamic M-DP score, 14-analyte panel (SomaLogic SOMAscan), clinical studies in RA; assay type: in vivo, human; conditions: for M-DP score mean difference ± SD, Good vs. No / M-DP score mean ± SD, DAS28-CRP response group Good / M-DP score mean ± SD, DAS28-CRP response group Moderate / M-DP score mean ± SD, DAS28-CRP response group No: response at week 24
Source text: (§1) Serum samples and data from eight interventional clinical studies with seven different active treatments for RA or placebo treatment were obtained and analyzed: sirukumab (anti-IL-6) and placebo treatments in SIRROUND-M (NCT01689532; Takeuchi T, et al. Arthritis Res Ther. 2018 Mar. 7; 20(1): 42), SIRROUND-D (NCT01604343; Takeuchi T, et al. Ann Rheum Dis. 2017 Dec.; 76(12): 2001-2008), and SIRROUND-T (NCT01606761; Aletaha D, et al. Lancet. 2017 Mar. 25; 389(10075): 1206-1217); sirukumab and adalimumab (anti-TNF-alpha) treatments in SIRROUND-H (NCT02019472; Taylor PC, et al. Ann Rheum Dis. 2018 May; 77(5): 658-666); golimumab (anti-TNF-alpha) treatment in GO-FURTHER (NCT00973479; Weinblatt ME, et al. Ann Rheum Dis. 2013 March; 72(3): 381-9); guselkumab (anti-IL-23p19), ustekinumab (anti-IL-12/IL-23p40), and placebo treatments in CNTO1275ARA2001 (NCT01645280; Cox JD, et al. […]); JNJ-40346527 (colony-stimulating factor-1 inhibitor) and placebo treatments in 40346527ARA2001 (NCT01597739; Genovese MC, et al. J Rheumatol. 2015 October; 42(10): 1752-60). Plasma samples were obtained from the RA-MAP TACERA study (Cope AP, et al. Nat Rev Rheumatol. 2018 January; 14(1): 53-60) before (baseline) and 6-months after initiation of conventional synthetic disease-modifying anti-rheumatic drugs (csDMARDs). Details of treatment dose groups, concomitant methotrexate use, and previous experience with csDMARDs and biologics are reported in Table 1. The studies were conducted in accordance with the Declaration of Helsinki. The study protocols were reviewed and approved by an independent ethics committee or institutional review board for each study center. Written informed consent was obtained from all patients before study entry. Additional study details and patient characteristics are available in the referenced publications for each study. For SIRROUND-D and SIRROUND-T studies, sets of serum samples from demographically-matched healthy controls were obtained from commercial sources (BioIVT, Westbury, N.Y.).
(§2) Serum samples from baseline (week 0) and the time points indicated in Table 1 were provided for quantification of 1189 serum analytes using the SomaScan v3.1 platform (SomaLogic, Boulder, Colo.; www.somalogic.com), with the exception of RA-MAP TACERA, for which plasma samples were analyzed for 1301 analytes using the SomaScan v3.2 platform. For some studies, a redacted dataset reporting data for a subset of the analytes was obtained. Relative fluorescence unit (RFU) data were sequentially normalized for hybridization controls (internal standards per samples), median signal across all samples (assumes same total protein concentration across sample set), and calibration controls (common sample standards across analysis plates). Samples failed quality control standards defined by Somalogic were excluded from analyses. The normalized RFU values were log2-transformed for subsequent analyses.
(§3) Changes in analyte expression levels were calculated for individual samples as the log2 transform of the ratio of the analyte level at the indicated time point (visit level) over the analyte level at baseline (baseline level) for a given subject, i.e., log 2(visit level/baseline level). Changes in RA disease-associated analytes per sample were summarized using a pharmacodynamic (PD) molecular disease profile (M-DP) score, defined as the median value of the log 2(visit level/baseline level) values for analytes in the defined M-DP analyte set. […] PD M-DP scores in the log 2(visit level/baseline level) scale can be transformed to percent change from baseline, using the transformation: (2^M-DP score−1)×100%.
Statistical analyses were performed on log2-transformed data, for either normalized Relative fluorescence unit (RFU) datasets or within-subject fold/baseline datasets. Significance of differences between groups was evaluated using General Linear Models, with t-tests when comparing two groups. […]

[2] = tested on: 4-analyte M-DP panel (CRP, CXCL10, CXCL13, SAA); assay: Pharmacodynamic M-DP score, 4-analyte panel CRP, CXCL10, CXCL13, SAA (SOMAscan), clinical studies in RA; assay type: in vivo, human; conditions: for M-DP score mean ± SD, All treated / M-DP score mean difference ± SD, Good vs. No / M-DP score mean ± SD, DAS28-CRP response group Good / M-DP score mean ± SD, DAS28-CRP response group Moderate / M-DP score mean ± SD, DAS28-CRP response group No: 4-analyte; for M-DP score mean difference ± SD, Good vs. No / M-DP score mean ± SD, DAS28-CRP response group Good / M-DP score mean ± SD, DAS28-CRP response group Moderate / M-DP score mean ± SD, DAS28-CRP response group No: response at week 24
Source text: as §1, §2, §3
In selecting the best minimal set of analytes that performs similarly to the full 14-analyte set, analyte sets that results in significant associations between DAS28-CRP EULAR good vs. no response with p<0.05 for each study were prioritized (Table 4). […]

[3] = CERTAIN Biorepository RA patients
[4] = CNTO1275ARA2001, score at week 4, ustekinumab SC 90 mg or guselkumab SC 50 or 200 mg
[5] = CNTO1275ARA2001, score at week 28, ustekinumab SC 90 mg or guselkumab SC 50 or 200 mg
[6] = GO-FURTHER, score at week 14, golimumab IV 2 mg/kg weeks 0, 4, then q8w plus methotrexate
[7] = GO-FURTHER, score at week 14, golimumab IV 2 mg/kg

## rituximab
[1]; 3-months
  M-DP score GMean decrease: 30%
[1]; 6-months
  M-DP score GMean decrease: 36%
[1]; score at month 3M
  M-DP score mean ± SD, 6-month DAS28-CRP response group Good: −0.44 ± 1.13 [7] log2 (fold/baseline)
  M-DP score mean ± SD, 6-month DAS28-CRP response group Moderate: −0.71 ± 1.62 [4] log2 (fold/baseline)
  M-DP score mean ± SD, 6-month DAS28-CRP response group No: −0.23 n.a. [1] log2 (fold/baseline)
  M-DP score mean ± SD, All treated: −0.51 ± 1.20 [12] log2 (fold/baseline)
[1]; score at month 6M
  M-DP score mean ± SD, 6-month DAS28-CRP response group Good: −0.96 ± 0.79 [7]* log2 (fold/baseline)
  M-DP score mean ± SD, 6-month DAS28-CRP response group Moderate: −0.24 ± 1.23 [4] log2 (fold/baseline)
  M-DP score mean ± SD, 6-month DAS28-CRP response group No: −0.01 n.a. [1] log2 (fold/baseline)
  M-DP score mean ± SD, All treated: −0.64 ± 0.95 [12] * log2 (fold/baseline)
RA patients; [3]
  EULAR DAS28-CRP clinical response rate, good response: 50%
  EULAR DAS28-CRP clinical response rate, moderate response: 32%
  EULAR DAS28-CRP clinical response rate, no response: 18%

## guselkumab [reference compound]
14-analyte M-DP panel; [4]
  M-DP score mean ± SD, All treated: −0.01 ± 0.19 log2 (fold/baseline)
  M-DP score mean difference ± SD, Good vs. No: 0.00 ± 0.19 log2 (fold/baseline)
  M-DP score mean ± SD, DAS28-CRP response group Good: −0.04 ± 0.19 log2 (fold/baseline)
  M-DP score mean ± SD, DAS28-CRP response group Moderate: 0.02 ± 0.20 log2 (fold/baseline)
  M-DP score mean ± SD, DAS28-CRP response group No: −0.04 ± 0.19 [12] log2 (fold/baseline)
14-analyte M-DP panel; [5]
  M-DP score mean ± SD, All treated: −0.03 ± 0.26 log2 (fold/baseline)
  M-DP score mean difference ± SD, Good vs. No: −0.03 ± 0.21 log2 (fold/baseline)
  M-DP score mean ± SD, DAS28-CRP response group Good: −0.08 ± 0.10 log2 (fold/baseline)
  M-DP score mean ± SD, DAS28-CRP response group Moderate: 0.01 ± 0.34 log2 (fold/baseline)
  M-DP score mean ± SD, DAS28-CRP response group No: −0.05 ± 0.25 [12] log2 (fold/baseline)
14-analyte M-DP panel; week 4 or latest time point evaluated (weeks 28, 28, and 12, respectively)
  GMean M-DP scores, change: not decreased
[2]; [4]
  M-DP score mean ± SD, All treated: −0.12 ± 0.39 log2 (fold/baseline)
  M-DP score mean difference ± SD, Good vs. No: −0.11 ± 0.33 (0.4781) log2 (fold/baseline)
  M-DP score mean ± SD, DAS28-CRP response group Good: −0.19 ± 0.30 log2 (fold/baseline)
  M-DP score mean ± SD, DAS28-CRP response group Moderate: −0.11 ± 0.49 log2 (fold/baseline)
  M-DP score mean ± SD, DAS28-CRP response group No: −0.08 ± 0.35 log2 (fold/baseline)
[2]; [5]
  M-DP score mean ± SD, All treated: −0.07 ± 0.37 log2 (fold/baseline)
  M-DP score mean difference ± SD, Good vs. No: −0.12 ± 0.38 (0.5645) log2 (fold/baseline)
  M-DP score mean ± SD, DAS28-CRP response group Good: −0.12 ± 0.38 log2 (fold/baseline)
  M-DP score mean ± SD, DAS28-CRP response group Moderate: −0.10 ± 0.39 log2 (fold/baseline)
  M-DP score mean ± SD, DAS28-CRP response group No: −0.01 ± 0.38 log2 (fold/baseline)
RA patients
  clinical efficacy in the underlying clinical studies: not clinically efficacious

## golimumab [reference compound]
14-analyte M-DP panel; GO-FURTHER, 14-weeks treatment, golimumab IV
  M-DP score decrease: 26%
14-analyte M-DP panel; [6]
  M-DP score mean ± SD, All treated: −0.44 ± 0.37 log2 (fold/baseline)
14-analyte M-DP panel; [7]
  M-DP score mean difference ± SD, Good vs. No: −0.35 ± 0.35 log2 (fold/baseline)
  M-DP score mean ± SD, DAS28-CRP response group Good: −0.56 ± 0.39 log2 (fold/baseline)
  M-DP score mean ± SD, DAS28-CRP response group Moderate: −0.45 ± 0.34 log2 (fold/baseline)
  M-DP score mean ± SD, DAS28-CRP response group No: −0.21 ± 0.27 [22] * log2 (fold/baseline)
[2]; [6]
  M-DP score mean ± SD, All treated: −0.94 ± 0.63 log2 (fold/baseline)
[2]; [7]
  M-DP score mean difference ± SD, Good vs. No: −0.56 ± 0.55 (0.0003) log2 (fold/baseline)
  M-DP score mean ± SD, DAS28-CRP response group Good: −1.13 ± 0.61 log2 (fold/baseline)
  M-DP score mean ± SD, DAS28-CRP response group Moderate: −0.94 ± 0.68 log2 (fold/baseline)
  M-DP score mean ± SD, DAS28-CRP response group No: −0.57 ± 0.43 log2 (fold/baseline)
[2]; golimumab treatment data
  M-DP score decrease, good response subgroup: 54%
  M-DP score decrease, no response subgroup: 33%
RA patients
  clinical efficacy in the underlying clinical studies: clinically efficacious
